The values below come from US9422285B2, “Substituted pyrazolo[1,5-A]-pyridine-3-carboxamides and use thereof” (Bayer Pharma Aktiengesellschaft, priority 2014, dated 2016).

The target of the assay is T1, recombinant guanylate cyclase reporter cell line (Rattus norvegicus, UniProt P19686+P20595).
T1 construct: expressed in transfected cells
T1 sequence (P19686 1-690): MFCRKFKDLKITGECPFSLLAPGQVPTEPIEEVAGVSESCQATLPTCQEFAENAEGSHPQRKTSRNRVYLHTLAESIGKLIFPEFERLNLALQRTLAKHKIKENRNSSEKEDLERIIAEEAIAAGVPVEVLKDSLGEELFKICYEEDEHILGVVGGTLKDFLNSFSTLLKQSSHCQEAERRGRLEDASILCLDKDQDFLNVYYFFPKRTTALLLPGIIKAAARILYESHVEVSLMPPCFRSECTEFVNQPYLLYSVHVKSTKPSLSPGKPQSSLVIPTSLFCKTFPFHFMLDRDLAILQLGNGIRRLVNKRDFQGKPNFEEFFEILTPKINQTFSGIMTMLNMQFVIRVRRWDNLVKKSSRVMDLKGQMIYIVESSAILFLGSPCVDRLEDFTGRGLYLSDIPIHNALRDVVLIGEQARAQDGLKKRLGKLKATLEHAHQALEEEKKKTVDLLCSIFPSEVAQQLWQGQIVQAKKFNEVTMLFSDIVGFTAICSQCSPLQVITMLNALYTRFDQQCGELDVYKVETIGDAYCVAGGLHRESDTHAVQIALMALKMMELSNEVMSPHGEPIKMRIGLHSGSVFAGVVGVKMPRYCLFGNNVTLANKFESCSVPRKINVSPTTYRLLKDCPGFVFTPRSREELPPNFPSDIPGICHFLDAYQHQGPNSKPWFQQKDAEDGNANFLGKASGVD
T1 sequence (P20595 1-619): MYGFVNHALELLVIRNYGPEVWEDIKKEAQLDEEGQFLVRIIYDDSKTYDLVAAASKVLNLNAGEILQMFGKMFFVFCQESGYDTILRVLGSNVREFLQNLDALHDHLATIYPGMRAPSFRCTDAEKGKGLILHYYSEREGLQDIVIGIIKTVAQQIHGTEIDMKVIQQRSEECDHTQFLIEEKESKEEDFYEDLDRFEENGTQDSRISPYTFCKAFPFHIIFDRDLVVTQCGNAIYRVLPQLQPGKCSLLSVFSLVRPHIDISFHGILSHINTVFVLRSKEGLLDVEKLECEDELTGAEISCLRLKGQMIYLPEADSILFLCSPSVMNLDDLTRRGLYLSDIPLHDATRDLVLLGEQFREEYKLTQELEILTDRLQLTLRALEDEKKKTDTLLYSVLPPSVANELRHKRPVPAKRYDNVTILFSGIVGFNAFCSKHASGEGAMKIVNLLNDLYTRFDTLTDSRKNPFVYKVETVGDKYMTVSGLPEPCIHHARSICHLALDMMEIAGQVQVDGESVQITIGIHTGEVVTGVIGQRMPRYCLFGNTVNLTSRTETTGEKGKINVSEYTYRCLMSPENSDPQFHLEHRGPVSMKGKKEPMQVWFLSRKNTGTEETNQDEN
The assay is described as follows: Effect on a recombinant guanylate cyclase reporter cell line (B-2). It counts as cell-based. The note with it: in some cases mean values for individual determinations. As to the method: B-2. Effect on a Recombinant Guanylate Cyclase Reporter Cell Line
The cellular effect of the inventive compounds is determined using a recombinant guanylate cyclase reporter cell line, as described in F. Wunder et al., Anal. Biochem. 339, 104-112 (2005).
Representative MEC values (MEC=minimum effective concentration) for the inventive compounds are shown in the table below (in some cases as mean values for individual determinations): […]

Where a name gives a salt, the structure may show the parent alone.

`Cc1cc(OCc2c(F)cccc2F)n2nc(C)c(C(=O)NC3CCOc4c(C#N)cccc43)c2c1` (racemic) [Example 140, rac-N-(8-Cyano-3,4-dihydro-2H-chromen-4-yl)-7-[(2,6-difluorobenzyl)oxy]-2,5-dimethylpyrazolo[1,5-a]pyridine-3-carboxamide]: the “MEC (minimum effective concentration)” value was 0.3 µM.

In the case of `Cc1cc(OCc2c(F)cccc2F)n2nc(C)c(C(=O)NCC3CCC(=O)N3)c2c1` (racemic) [Example 95, rac-7-[(2,6-Difluorobenzyl)oxy]-2,5-dimethyl-N-[(5-oxopyrrolidin-2-yl)methyl]pyrazolo[1,5-a]pyridine-3-carboxamide], the “MEC (minimum effective concentration)” value was 10 µM.

For the compound `Cc1cc(OCc2c(F)ccc(F)c2F)n2nc(C)c(C(=O)NC(CO)c3ccc(F)cc3)c2c1` (racemic) [Example 30, rac-N-[1-(4-Fluorophenyl)-2-hydroxyethyl]-2,5-dimethyl-7-[(2,3,6-trifluorobenzyl)oxy]pyrazolo[1,5-a]pyridine-3-carboxamide], the “MEC (minimum effective concentration)” value amounted to 0.1 µM.

As to `Cc1cc(OCc2c(F)cccc2F)n2nc(C)c(C(=O)NC3CC[C@@H]4NCC[C@H]34)c2c1` (relative stereo) [Example 122, rel-7-[(2,6-Difluorobenzyl)oxy]-2,5-dimethyl-N-[(3aR,6aR)-octahydrocyclopenta[b]pyrrol-4-yl]pyrazolo[1,5-a]pyridine-3-carboxamide], the “MEC (minimum effective concentration)” value came out at 10 µM.

On to `Cc1cc(OCc2c(F)ccc(F)c2F)n2nc(C)c(C(=O)Nc3cnn4ccccc34)c2c1` [Example 23, 2,5-Dimethyl-N-(pyrazolo[1,5-a]pyridin-3-yl)-7-[(2,3,6-trifluorobenzyl)oxy]pyrazolo[1,5-a]pyridine-3-carboxamide], for which the “MEC (minimum effective concentration)” value came out at 0.3 µM.

As for `Cc1cc(OCc2c(F)cccc2F)n2nc(C)c(C(=O)NCCCS(=O)(=O)NC3CC3)c2c1` [Example 151, N-[3-(Cyclopropylsulphamoyl)propyl]-7-[(2,6-difluorobenzyl)oxy]-2,5-dimethylpyrazolo[1,5-a]pyridine-3-carboxamide], the “MEC (minimum effective concentration)” value is 3.0 µM.

Turning to `Cc1cc(OCc2c(F)cccc2F)n2nc(C)c(C(=O)NNC3CCCC3O)c2c1` (centres unmarked) [Example 68, 7-[(2,6-Difluorobenzyl)oxy]-N′-(2-hydroxycyclopentyl)-2,5-dimethylpyrazolo[1,5-a]pyridine-3-carbohydrazide trifluoroacetate], the “MEC (minimum effective concentration)” value is 10 µM.

As to `Cc1cc(OCc2c(F)cccc2F)n2nc(C)c(C(=O)NC3CCCc4cc(F)ccc43)c2c1` (racemic) [Example 150, rac-7-[(2,6-Difluorobenzyl)oxy]-N-(6-fluoro-1,2,3,4-tetrahydronaphthalen-1-yl)-2,5-dimethylpyrazolo[1,5-a]pyridine-3-carboxamide], the “MEC (minimum effective concentration)” value came out at 0.3 µM.

For the compound `COCC(C)(N)CNC(=O)c1c(C)nn2c(OCc3c(F)cccc3F)cc(C)cc12` (racemic) [Example 97, rac-N-(2-Amino-3-methoxy-2-methylpropyl)-7-[(2,6-difluorobenzyl)oxy]-2,5-dimethylpyrazolo[1,5-a]pyridine-3-carboxamide], the “MEC (minimum effective concentration)” value came to 1.0 µM.

For `Cc1cc(OCc2c(F)cccc2F)n2nc(C)c(C(=O)NCC(C)(N)C(F)(F)F)c2c1` (racemic) [Example 109, rac-N-(2-Amino-3,3,3-trifluoro-2-methylpropyl)-7-[(2,6-difluorobenzyl)oxy]-2,5-dimethylpyrazolo[1,5-a]pyridine-3-carboxamide], the “MEC (minimum effective concentration)” value came out at 1.0 µM.

As to `Cc1cc(OCc2c(F)cccc2F)n2nc(C)c(C(=O)Nc3ccc(N4CCNCC4)c(C(F)(F)F)c3)c2c1` [Example 125, 7-[(2,6-Difluorobenzyl)oxy]-2,5-dimethyl-N-[4-(piperazin-l-yl)-3-(trifluoromethyl)phenyl]pyrazolo[1,5-a]pyridine-3-carboxamide], the “MEC (minimum effective concentration)” value came out at 3.0 µM.

For the compound `Cc1cc(OCc2c(F)ccc(F)c2F)n2nc(C)c(C(=O)NCC3(O)CC3)c2c1` [Example 25, N-[(1-Hydroxycyclopropyl)methyl]-2,5-dimethyl-7-[(2,3,6-trifluorobenzyl)oxy]pyrazolo[1,5-a]pyridine-3-carboxamide], the “MEC (minimum effective concentration)” value is 0.3 µM.

As to `Cc1cc(OCc2c(F)ccc(F)c2F)n2nc(C)c(C(=O)NCC(C)(N)C3CC3)c2c1` (racemic) [Example 13, rac-N-(2-Amino-2-cyclopropylpropyl)-2,5-dimethyl-7-[(2,3,6-trifluorobenzyl)oxy]pyrazolo[1,5-a]pyridine-3-carboxamide], the “MEC (minimum effective concentration)” value worked out at 1.0 µM.

`Cc1cc(OCc2c(F)cccc2F)n2nc(C)c(C(=O)Nc3ccnc4ccc(F)cc34)c2c1` [Example 80, 7-[(2,6-Difluorobenzyl)oxy]-N-(6-fluoroquinolin-4-yl)-2,5-dimethylpyrazolo[1,5-a]pyridine-3-carboxamide trifluoroacetate]: the “MEC (minimum effective concentration)” value was 0.03 µM.

On to `Cc1cc(OCc2c(F)cccc2F)n2nc(C)c(C(=O)NC(CN)c3ccc4c(c3)OCO4)c2c1` (racemic) [Example 120, rac-N-[2-Amino-1-(1,3-benzodioxol-5-yl)ethyl]-7-[(2,6-difluorobenzyl)oxy]-2,5-dimethylpyrazolo[1,5-a]pyridine-3-carboxamide], for which the “MEC (minimum effective concentration)” value was found to be 1.0 µM.

For `Cc1cc(OCc2c(F)ccc(F)c2F)n2nc(C)c(C(=O)NCc3ccccc3-c3cccnc3)c2c1` [Example 14, 2,5-Dimethyl-N-[2-(pyridin-3-yl)benzyl]-7-[(2,3,6-trifluorobenzyl)oxy]pyrazolo[1,5-a]pyridine-3-carboxamide], the “MEC (minimum effective concentration)” value is 0.3 µM.

As to `Cc1cc(OCc2c(F)cccc2F)n2nc(C)c(C(=O)NC3CCOc4c(Cl)cccc43)c2c1` (racemic) [Example 147, rac-N-(8-Chloro-3,4-dihydro-2H-chromen-4-yl)-7-[(2,6-difluorobenzyl)oxy]-2,5-dimethylpyrazolo[1,5-a]pyridine-3-carboxamide], the “MEC (minimum effective concentration)” value amounted to 0.3 µM.

Regarding `Cc1cc(OCc2c(F)cccc2F)n2nc(C)c(C(=O)N[C@@H](CC(=O)O)CC(C)C)c2c1` [Example 38, (3R)-3-[({7-[(2,6-Difluorobenzyl)oxy]-2,5-dimethylpyrazolo[1,5-a]pyridin-3-yl}carbonyl)amino]-5-methylhexanoic Acid], the “MEC (minimum effective concentration)” value was 3.0 µM.

Consider `Cc1cc(OCc2c(F)cccc2F)n2nc(C)c(C(=O)NCC(N)c3ccc(C)o3)c2c1` (racemic) [Example 104, rac-N-[2-Amino-2-(5-methyl-2-furyl)ethyl]-7-[(2,6-difluorobenzyl)oxy]-2,5-dimethylpyrazolo[1,5-a]pyridine-3-carboxamide], for which the “MEC (minimum effective concentration)” value was 3.0 µM.

Regarding `Cc1cc(OCc2c(F)cccc2F)n2nc(C)c(C(=O)NC3CCOc4ncccc43)c2c1` (racemic) [Example 74, rac-7-[(2,6-Difluorobenzyl)oxy]-N-(3,4-dihydro-2H-pyrano[2,3-b]pyridin-4-yl)-2,5-dimethylpyrazolo[1,5-a]pyridine-3-carboxamide trifluoroacetate], the “MEC (minimum effective concentration)” value was 0.03 µM.
